# Data reported in ChEMBL document CHEMBL3132765, “Discovery of novel RIP derivatives by alanine scanning for the treatment of S. aureus infections” (Medchemcomm, 2013).
# Active and inactive are the calls of the source. The calls are words filed in the database; no cut-off is given here. Peptide text beside a SMILES is read from it.
# Experiments:
# Rattus norvegicus [1] = assay: Toxicity in Wistar rat infected with methicillin-susceptible Staphylococcus aureus Smith diffuse assessed as anorexia administered as solution by soaking of graft after 7 days; format: organism-based; settings: in vivo, other, 168 h
# Rattus norvegicus [2] = assay: Toxicity in Wistar rat infected with methicillin-susceptible Staphylococcus aureus Smith diffuse assessed as diarrhea administered as solution by soaking of graft after 7 days; format: organism-based; settings: in vivo, other, 168 h
# Staphylococcus aureus [3] = assay: Antimicrobial activity against methicillin-susceptible Staphylococcus aureus Smith diffuse infected in Wistar rat assessed as reduction in infection administered as solution by soaking of graft after 7 days relative to control; format: functional, organism-based
# Rattus norvegicus [4] = assay: Toxicity in Wistar rat infected with methicillin-susceptible Staphylococcus aureus Smith diffuse assessed as vomiting administered as solution by soaking of graft after 7 days; format: organism-based; settings: in vivo, other, 168 h
# Staphylococcus aureus [5] = assay: Antimicrobial activity against methicillin-susceptible Staphylococcus aureus Smith diffuse assessed as inhibition of biofilm formation by cell-based microbroth dilution method; format: functional
# Rattus norvegicus [6] = assay: Toxicity in Wistar rat infected with methicillin-susceptible Staphylococcus aureus Smith diffuse assessed as mortality administered as solution by soaking of graft after 7 days; format: organism-based; settings: in vivo, other, 168 h
# Rattus norvegicus [7] = assay: Toxicity in Wistar rat infected with methicillin-susceptible Staphylococcus aureus Smith diffuse assessed as behavioral alterations administered as solution by soaking of graft after 7 days; format: organism-based; settings: in vivo, other, 168 h
# Rattus norvegicus [8] = assay: Toxicity in Wistar rat infected with methicillin-susceptible Staphylococcus aureus Smith diffuse assessed as perigraft inflammation administered as solution by soaking of graft after 7 days; format: organism-based; settings: in vivo, other, 168 h
# Rattus norvegicus [9] = assay: Toxicity in Wistar rat infected with methicillin-susceptible Staphylococcus aureus Smith diffuse assessed as mortality at 7 mg/kg administered as solution by soaking of graft after 7 days; format: organism-based; set-up: dose 7 mg/kg; settings: in vivo, other, 168 h
# Rattus norvegicus [10] = assay: Toxicity in Wistar rat infected with methicillin-susceptible Staphylococcus aureus Smith diffuse assessed as behavioral alterations at 7 mg/kg administered as solution by soaking of graft after 7 days; format: organism-based; set-up: dose 7 mg/kg; settings: in vivo, other, 168 h
# Rattus norvegicus [11] = assay: Toxicity in Wistar rat infected with methicillin-susceptible Staphylococcus aureus Smith diffuse assessed as perigraft inflammation at 7 mg/kg administered as solution by soaking of graft after 7 days; format: organism-based; set-up: dose 7 mg/kg; settings: in vivo, other, 168 h
# Rattus norvegicus [12] = assay: Toxicity in Wistar rat infected with methicillin-susceptible Staphylococcus aureus Smith diffuse assessed as diarrhea at 7 mg/kg administered as solution by soaking of graft after 7 days; format: organism-based; set-up: dose 7 mg/kg; settings: in vivo, other, 168 h
# Rattus norvegicus [13] = assay: Toxicity in Wistar rat infected with methicillin-susceptible Staphylococcus aureus Smith diffuse assessed as vomiting at 7 mg/kg administered as solution by soaking of graft after 7 days; format: organism-based; set-up: dose 7 mg/kg; settings: in vivo, other, 168 h
# Rattus norvegicus [14] = assay: Toxicity in Wistar rat infected with methicillin-susceptible Staphylococcus aureus Smith diffuse assessed as anorexia at 7 mg/kg administered as solution by soaking of graft after 7 days; format: organism-based; set-up: dose 7 mg/kg; settings: in vivo, other, 168 h
Compound,Activity (Rattus norvegicus [1]),Activity (Rattus norvegicus [2]),Activity (Staphylococcus aureus [3]),Activity (Rattus norvegicus [4]),MIC (Staphylococcus aureus [5]) [µg/mL],Activity (Rattus norvegicus [6]),Activity (Rattus norvegicus [7]),Activity (Rattus norvegicus [8]),Activity (Rattus norvegicus [9]),Activity (Rattus norvegicus [10]),Activity (Rattus norvegicus [11]),Activity (Rattus norvegicus [12]),Activity (Rattus norvegicus [13]),Activity (Rattus norvegicus [14])
NC(=O)[C@H](Cc1c[nH]c2ccccc12)NC(=O)[C@@H]1CCCN1C(=O)[C@H](CO)NC(=O)[C@@H](N)Cc1ccc(O)cc1 (H-YSPW-NH2),Non-toxic,Non-toxic,Active,Non-toxic,> 128,Non-toxic,Non-toxic,Non-toxic,–,–,–,–,–,–
CCCCCCCCCC(=O)N[C@@H](Cc1c[nH]c2ccccc12)C(=O)N[C@H](CC(N)=O)C(=O)N[C@@H](CC(=O)O)C(=O)N[C@@H]1C(=O)NCC(=O)N[C@@H](CCCN)C(=O)N[C@@H](CC(=O)O)C(=O)N[C@H](C)C(=O)N[C@@H](CC(=O)O)C(=O)NCC(=O)N[C@H](CO)C(=O)N[C@@H]([C@H](C)CC(=O)O)C(=O)N[C@@H](CC(=O)c2ccccc2N)C(=O)O[C@@H]1C,–,–,–,–,4,–,–,–,Non-toxic,Non-toxic,Non-toxic,Non-toxic,Non-toxic,Non-toxic
H-YSPWTAF-NH2,Non-toxic,Non-toxic,Active,Non-toxic,> 128,Non-toxic,Non-toxic,Non-toxic,–,–,–,–,–,–
H-ASPWTNF-NH2,Non-toxic,Non-toxic,Active,Non-toxic,> 128,Non-toxic,Non-toxic,Non-toxic,–,–,–,–,–,–
H-YSPWTNA-NH2,Non-toxic,Non-toxic,Active,Non-toxic,> 128,Non-toxic,Non-toxic,Non-toxic,–,–,–,–,–,–
C[C@@H](O)[C@H](NC(=O)[C@@H](N)Cc1c[nH]c2ccccc12)C(=O)N[C@@H](CC(N)=O)C(=O)N[C@@H](Cc1ccccc1)C(N)=O (H-WTNF-NH2),Non-toxic,Non-toxic,Active,Non-toxic,> 128,Non-toxic,Non-toxic,Non-toxic,–,–,–,–,–,–
H-YSPWTNF-NH2,–,–,Active,–,–,–,–,–,–,–,–,–,–,–
H-YAPWTNF-NH2,Non-toxic,Non-toxic,Active,Non-toxic,> 128,Non-toxic,Non-toxic,Non-toxic,–,–,–,–,–,–
H-YSPATNF-NH2,Non-toxic,Non-toxic,Active,Non-toxic,> 128,Non-toxic,Non-toxic,Non-toxic,–,–,–,–,–,–
C[C@@H](O)[C@H](NC(=O)[C@H](Cc1c[nH]c2ccccc12)NC(=O)[C@@H]1CCCN1C(=O)[C@@H](N)CO)C(N)=O (H-SPWT-NH2),Non-toxic,Non-toxic,Active,Non-toxic,> 128,Non-toxic,Non-toxic,Non-toxic,–,–,–,–,–,–
C[C@@H](O)[C@H](NC(=O)[C@H](Cc1c[nH]c2ccccc12)NC(=O)[C@@H]1CCCN1)C(=O)N[C@@H](CC(N)=O)C(N)=O (H-PWTN-NH2),Non-toxic,Non-toxic,Active,Non-toxic,> 128,Non-toxic,Non-toxic,Non-toxic,–,–,–,–,–,–
H-YSAWTNF-NH2,Non-toxic,Non-toxic,Active,Non-toxic,> 128,Non-toxic,Non-toxic,Non-toxic,–,–,–,–,–,–
H-YSPWANF-NH2,Non-toxic,Non-toxic,Active,Non-toxic,> 128,Non-toxic,Non-toxic,Non-toxic,–,–,–,–,–,–
